Assay results taken from patent US9107909B2, “Materials and methods to enhance hematopoietic stem cells engraftment procedures” (priority 2008, dated 2015).

What was measured:
SKL cells [1] = assay: In vitro cell cycle analysis; type: cell-based, mouse
Procedure: For in vitro cell cycle analysis, Lin^neg cells were treated with either 1 microMolar dmPGE2 or vehicle for 2 hours, washed, and cultured in Stem Cell Pro Media (Stem Cell Technologies) with rmSCF (50 ng/ml) (R&D Systems, Minneapolis, Minn.), rhFlt-3 and rhTPO (100 ng/ml each) (Immunex, Seattle, Wash.). After 20 hours, cells were stained for SKL, fixed and permeabilized, and stained with 7AAD (BD Biosciences, San Jose, Calif.). The proportion of SKL cells in S+G2/M phase was determined by measuring DNA content by FACS. For in vivo cell cycle analysis, CD45.2 mice were lethally irradiated and transplanted with 5×10^6 Lin^neg cells from CD45.1 mice treated with either 1 microMolar dmPGE2 or vehicle for 2 hours. At the time of transplant, recipient mice received 1 milligram/mL BrdU (Sigma Aldrich, St. Louis, Mo.) in drinking water and 1 mg per mouse BrdU I.P. After 16 hours, recipient marrow was isolated, lineage depleted, and stained for CD45.1, SKL and BrdU. The proportion of homed (CD45.1^+) SKL cells that were BrdU^+ was determined by FACS in individual mice.
Survivin regulates HSPC entry into and progression through cell cycle. Furthermore, β-catenin, implicated in HSPC proliferation and self-renewal, lies downstream of EP receptor pathways. […] To test this hypothesis, the cell cycle status of SKL cells pulsed with dmPGE2 or vehicle in vitro was analyzed. Referring now to FIG. 6A, pulse-exposure to dmPGE2 increased DNA content in SKL cells, an indication of increased cell cycling (left panels, upper right quadrant). In 3 experiments, 60% more SKL cells were in S+G2/M phase of the cell cycle after dmPGE2 treatment compared to controls (FIG. 6A right panel).
Lineage^neg cells were treated with either vehicle or 1 microMolar dmPGE2 for 2 hours, washed and cultured in media with rmSCF, rhFlt3 and rhTpo. After 20 hours cells were stained for SKL and Hoechst-33342 and Pyronin-Y. The proportion of SKL cells in cell cycle were measured by FACS. Referring now to FIG. 12, representative flow plot showing cell cycle distribution of gated SKL cells and combined data for fold increase in cell cycle for dmPGE2-treated cells compared to vehicle control from 3 experiments, Mean±SEM, n=9 mice, each assayed individually. […]
Referring now to FIG. 8, table summarizing data collected using Lin^neg bone marrow cells treated with either 1 microMolar dmPGE2 or vehicle for 2 hours and cultured in the presence of growth factors (50 ng/ml rmSCF, 100 ng/ml each of rhFlt-3 and rhTPO) for 20 hours, were stained for SLAM SKL, Hoechst-33342 and Pyronin-Y and the proportion of SLAM SKL cells in G0, G1, S and G2/M phase of the cell cycle determined by quantitation of the DNA and the RNA content by FACS. Data are Mean±SEM for n=9 mice, each assayed individually. ^(b)Percentage of cells in G1+S+G2M; Combined data for n=9 mice. ^(*^)P<0.05 compared to vehicle control.

CXCR4 mRNA = assay: QRT-PCR of CXCR4 mRNA; type: cell-based; settings: for time post-exposure of (maximal) CXCR4 mRNA upregulation: vs vehicle
Procedure: Total RNA was obtained using the absolutely RNA purification kit (Stratagene, La Jolla, Calif.). A constant amount of RNA was reverse transcribed with random primers (Promega, Madison, Wis.) and MMLV-reverse transcriptase (Promega) in a volume of 50 microLiter with 1 milliMolar dNTPs and RNase inhibitor as described (Fukuda and Pelus, 2001). DNase and RNase free water (Ambion, Austin, Tex.) was added to obtain a final concentration equivalent of 10 nanogram RNA/microLiter and 5 microLiter used for QRT-PCR. Primers for SYBR Green QRTPCR were designed to produce an amplicon size of 75-150 bp. QRT-PCR was performed in a total volume of 30 microLiter using Platinum SYBR Green qPCR supermix UDG with Rox (Invitrogen, Carlsbad, Calif.) in an ABI-7000 (Applied Biosystems, Carlsbad, Calif.), with an activation step of 50° C. for 2 min, denaturation at 95° C. for 2 min and amplification for 45 cycles at 95° C.-15 sec, 50° C.-30 sec, 72° C.-30 sec, followed by dissociation to confirm that only one product was obtained.
Referring now to FIG. 4A, the stromal-cell-derived factor-1 alpha (SDF-1a)/CXCR4 axis has been implicated in HSPC trafficking and homing. The study evaluated whether the improved homing of dmPGE2-treated HSPC was the result of increased SDF-1a/CXCR4 signalling.
To evaluate CXCR4, Lineage^neg mouse bone marrow cells or CD34^+ UCB were treated on ice with either 1 microMolar dmPGE2 or vehicle control for 2 hours, washed, and then cultured in RPMI-1640/10% HI-FBS at 37° C. for 24 hours, stained for SKL (murine cells) or CD34 (human) and CXCR4 and analyzed by FACS. Referring now to FIG. 4A, CXCR4 expression on murine KL and SKL cells and human CD34^+ UCB cells 24 hours after treatment with dmPGE2. Data are expressed as Mean±SEM % change in mean fluorescence intensity (MFI) of CXCR4 due to treatment with dmPGE2 or vehicle (n=3).

SKL cells [2] = assay: Apoptosis assay (Annexin-V+ SKL cells); type: cell-based, mouse; settings: for apoptosis of SKL cells in vitro: 0.1 nanoMolar-1 microMolar
Procedure: Lin^neg cells were treated on ice with 0.1 nanoMolar to 1 microMolar dmPGE2 or vehicle control, washed and incubated in RPMI-1640+2% FBS, without growth factors at 37° C. to induce apoptosis. After 24 hours, cells were stained for SKL and Annexin-V and the proportion of Annexin-V^+ SKL cells was determined by FACS.
Apoptosis is an important regulatory process in normal and malignant hematopoiesis and PGE2 has been implicated in anti-apoptotic signalling. Moreover, activation of cAMP, a downstream signaling molecule of EP receptors, inhibits apoptosis in CD34^+ cells. […] To evaluate an effect of dmPGE2 on HSPC survival, Lin^neg cells were pulsed with 0.1 nanoMolar-1 microMolar dmPGE2 or vehicle and cultured in serum-reduced culture medium without growth factors.

Structure (SMILES)	cell cycle rate of CD150+48− (SLAM) SKL cells (SKL cells [1]; in vitro, 1 microMolar 2 hours, 20 hours culture)	proportion of SKL cells actively in cell cycle (SKL cells [1]; in vitro, within 24 hours post-treatment)	increase in proportion of HSPC in cell cycle / HSPC cell cycle activity (SKL cells [1]; pulse exposure) [fold]	time post-exposure of (maximal) CXCR4 mRNA upregulation (CXCR4 mRNA) [h]	apoptosis of SKL cells in vitro (SKL cells [2])	cell cycle rate of KL or Lin neg cells (SKL cells [1]; in vitro)	more SKL cells in S+G2/M phase of the cell cycle (SKL cells [1]; in vitro, 3 experiments, vs controls) [%]	increase in CXCR4 mRNA (CXCR4 mRNA) [fold]	inhibition of apoptosis in SKL cells (SKL cells [2]; at 1 microMolar, serum-reduced medium without growth factors, 24 hours) [%]
CCCCC[C@H](O)/C=C/[C@H]1[C@H](O)CC(=O)[C@@H]1C/C=C\CCCC(=O)O [PGE2, Prostaglandin E2]	Increases the Cell Cycle Rate	increase	~2	6	dose-dependently decreased apoptosis	–	–	–	–
CCCCC(C)(C)[C@H](O)/C=C/[C@H]1[C@H](O)CC(=O)[C@@H]1C/C=C\CCCC(=O)O [dmPGE2, 16,16-dimethyl prostaglandin E2]	–	–	–	6	reduced apoptosis in SKL cells in a dose dependent fashion	No significant effect	60	2.65	~65
